#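 Exposure lasted 48 hours, with cells grown in 96-well plates and compounds tested at five concentrations. GI50: concentration for 50% inhibition of growth. Definition used: TGI = concentration required for complete inhibition of growth.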
# Experiments:
# Assay in all cases: growth of human tumour cells (NCI), 48 h
# 786-0 renal = system: 786-0 renal
# A498 renal = system: A498 renal
# A549 NSCLC = system: A549 NSCLC
# ACHN renal = system: ACHN renal
# BT-549 breast = system: BT-549 breast
# CAKI-1 renal = system: CAKI-1 renal
# COLO 205 colon = system: COLO 205 colon
# DU-145 prostate = system: DU-145 prostate
# EKVX NSCLC = system: EKVX NSCLC
# HCC-2998 colon = system: HCC-2998 colon
# HCT-116 colon = system: HCT-116 colon
# HCT-15 colon = system: HCT-15 colon
# HL-60(TB) leukemia = system: HL-60(TB) leukemia
# HOP-62 NSCLC = system: HOP-62 NSCLC
# HOP-92 NSCLC = system: HOP-92 NSCLC
# HS 578T breast = system: HS 578T breast
# HT29 colon = system: HT29 colon
# IGROV1 ovarian = system: IGROV1 ovarian
# KM12 colon = system: KM12 colon
# LOX IMVI melanoma = system: LOX IMVI melanoma
# M14 melanoma = system: M14 melanoma
# MCF7 breast = system: MCF7 breast
# MDA-MB-231 breast = system: MDA-MB-231 breast
# MDA-MB-435 = system: MDA-MB-435
# MOLT-4 leukemia = system: MOLT-4 leukemia
# NCI-H226 lung = system: NCI-H226 lung
# NCI-H23 lung = system: NCI-H23 lung
# NCI-H460 lung = system: NCI-H460 lung
# NCI-H522 lung = system: NCI-H522 lung
# NCI/ADR-RES ovarian = system: NCI/ADR-RES ovarian
# OVCAR-3 ovarian = system: OVCAR-3 ovarian
# OVCAR-4 ovarian = system: OVCAR-4 ovarian
# OVCAR-5 ovarian = system: OVCAR-5 ovarian
# OVCAR-8 ovarian = system: OVCAR-8 ovarian
# PC-3 prostate = system: PC-3 prostate
# SF-268 CNS = system: SF-268 CNS
# SF-295 CNS = system: SF-295 CNS
# SF-539 CNS = system: SF-539 CNS
# SK-MEL-2 melanoma = system: SK-MEL-2 melanoma
# SK-MEL-28 melanoma = system: SK-MEL-28 melanoma
# SK-MEL-5 melanoma = system: SK-MEL-5 melanoma
# SK-OV-3 ovarian = system: SK-OV-3 ovarian
# SN12C renal = system: SN12C renal
# SNB-19 CNS = system: SNB-19 CNS
# SNB-75 CNS = system: SNB-75 CNS
# SR leukemia = system: SR leukemia
# SW-620 colon = system: SW-620 colon
# T-47D breast = system: T-47D breast
# TK-10 renal = system: TK-10 renal
# U251 CNS = system: U251 CNS
# UACC-62 melanoma = system: UACC-62 melanoma
# UO-31 renal = system: UO-31 renal
compound,measurement,setting,value
Cc1cc(C2=NNC(=O)Cc3cc4c(cc32)OCCO4)cc(C)c1N,GI50,786-0 renal,5.27 µM
same,TGI,786-0 renal,> 100 µM
same,GI50,A498 renal,3.31 µM
same,TGI,A498 renal,99.4 µM
same,GI50,A549 NSCLC,3.2 µM
same,TGI,A549 NSCLC,> 100 µM
same,GI50,ACHN renal,6.48 µM
same,TGI,ACHN renal,> 100 µM
same,GI50,BT-549 breast,3.36 µM
same,TGI,BT-549 breast,> 100 µM
same,GI50,CAKI-1 renal,901 nM
same,TGI,CAKI-1 renal,7.66 µM
same,GI50,COLO 205 colon,1550 nM
same,TGI,COLO 205 colon,11.2 µM
same,GI50,DU-145 prostate,3.84 µM
same,TGI,DU-145 prostate,> 100 µM
same,GI50,EKVX NSCLC,29.7 µM
same,TGI,EKVX NSCLC,> 100 µM
same,GI50,HCC-2998 colon,3.26 µM
same,TGI,HCC-2998 colon,44 µM
same,GI50,HCT-116 colon,2350 nM
same,TGI,HCT-116 colon,> 100 µM
same,GI50,HCT-15 colon,1250 nM
same,TGI,HCT-15 colon,> 100 µM
same,GI50,HL-60(TB) leukemia,1590 nM
same,TGI,HL-60(TB) leukemia,54.5 µM
same,GI50,HOP-62 NSCLC,2720 nM
same,TGI,HOP-62 NSCLC,> 100 µM
same,GI50,HOP-92 NSCLC,3.54 µM
same,TGI,HOP-92 NSCLC,> 100 µM
same,GI50,HS 578T breast,3.05 µM
same,TGI,HS 578T breast,> 100 µM
same,GI50,HT29 colon,746 nM
same,TGI,HT29 colon,> 100 µM
same,GI50,IGROV1 ovarian,3 µM
same,TGI,IGROV1 ovarian,> 100 µM
same,GI50,KM12 colon,818 nM
same,TGI,KM12 colon,> 100 µM
same,GI50,LOX IMVI melanoma,3.18 µM
same,TGI,LOX IMVI melanoma,> 100 µM
same,GI50,M14 melanoma,2170 nM
same,TGI,M14 melanoma,> 100 µM
same,GI50,MCF7 breast,1130 nM
same,TGI,MCF7 breast,> 100 µM
same,GI50,MDA-MB-231 breast,6.25 µM
same,TGI,MDA-MB-231 breast,> 100 µM
same,GI50,MDA-MB-435,261 nM
same,TGI,MDA-MB-435,978 nM
same,GI50,MOLT-4 leukemia,3.97 µM
same,TGI,MOLT-4 leukemia,> 100 µM
same,GI50,NCI-H226 lung,8.9 µM
same,TGI,NCI-H226 lung,> 100 µM
same,GI50,NCI-H23 lung,2890 nM
same,TGI,NCI-H23 lung,> 100 µM
same,GI50,NCI-H460 lung,2640 nM
same,TGI,NCI-H460 lung,> 100 µM
same,GI50,NCI-H522 lung,1240 nM
same,TGI,NCI-H522 lung,6.19 µM
same,GI50,NCI/ADR-RES ovarian,882 nM
same,TGI,NCI/ADR-RES ovarian,25.8 µM
same,GI50,OVCAR-3 ovarian,892 nM
same,TGI,OVCAR-3 ovarian,5.6 µM
same,GI50,OVCAR-4 ovarian,6.4 µM
same,TGI,OVCAR-4 ovarian,> 100 µM
same,GI50,OVCAR-5 ovarian,8.02 µM
same,TGI,OVCAR-5 ovarian,> 100 µM
same,GI50,OVCAR-8 ovarian,4.08 µM
same,TGI,OVCAR-8 ovarian,> 100 µM
same,GI50,PC-3 prostate,2730 nM
same,TGI,PC-3 prostate,> 100 µM
same,GI50,SF-268 CNS,4.21 µM
same,TGI,SF-268 CNS,> 100 µM
same,GI50,SF-295 CNS,470 nM
same,TGI,SF-295 CNS,2870 nM
same,GI50,SF-539 CNS,2730 nM
same,TGI,SF-539 CNS,8.91 µM
same,GI50,SK-MEL-2 melanoma,3.42 µM
same,TGI,SK-MEL-2 melanoma,> 100 µM
same,GI50,SK-MEL-28 melanoma,5.37 µM
same,TGI,SK-MEL-28 melanoma,> 100 µM
same,GI50,SK-MEL-5 melanoma,1220 nM
same,TGI,SK-MEL-5 melanoma,> 100 µM
same,GI50,SK-OV-3 ovarian,2440 nM
same,TGI,SK-OV-3 ovarian,23.6 µM
same,GI50,SN12C renal,6.17 µM
same,TGI,SN12C renal,> 100 µM
same,GI50,SNB-19 CNS,4.31 µM
same,TGI,SNB-19 CNS,> 100 µM
same,GI50,SNB-75 CNS,1250 nM
same,TGI,SNB-75 CNS,4.32 µM
same,GI50,SR leukemia,310 nM
same,TGI,SR leukemia,> 100 µM
same,GI50,SW-620 colon,965 nM
same,TGI,SW-620 colon,> 100 µM
same,GI50,T-47D breast,4.41 µM
same,TGI,T-47D breast,> 100 µM
same,GI50,TK-10 renal,8.96 µM
same,TGI,TK-10 renal,> 100 µM
same,GI50,U251 CNS,3.22 µM
same,TGI,U251 CNS,> 100 µM
same,GI50,UACC-62 melanoma,3.59 µM
same,TGI,UACC-62 melanoma,> 100 µM
same,GI50,UO-31 renal,3.83 µM
same,TGI,UO-31 renal,> 100 µM
